Measured values reported in patent publication US20250136655A1, “INJECTION PEN FOR SUBCUTANEOUS ADMINISTRATION OF A PEPTIDE” (Zealand Pharma A/S, priority 2017, published 2025).
Several values for one entry are separate records, joined by “and”; a condition that tells them apart may be missing. Equal values may be shown once. Read-outs that look alike come from different tables or passages of the source. Values belong to the molecule of their own block, whether it stands above or below them. Ends that are not written are not given here.

Tests used:
[1] = cited from earlier work
[2] = test system: Wistar rats; experiment: Intestinotrophic effects following 26-week chronic exposure in rats; type: in vivo; settings: in words
Experimental: Wistar rats were dosed subcutaneously (SC) with vehicle, 1, 3 and 10 mg/kg ZP1848 on a daily basis for 26 weeks. Further sub-groups of control and high-dose animals were allowed a 6-week recovery period following completion of the dosing period. […] The length and the weight of the small and large intestines were measured at necropsy as indicators of intestinotrophic effects and the intestinal tract was evaluated histologically.

[3] = Phase 2 clinical trial PK profile of ZP1848 and metabolites in SBS patients; type: in vivo; settings: human, plasma
Experimental: The study was designed as a randomized, cross-over and double-blinded with three different doses of ZP1848 (10 mg, 1 mg, 0.1 mg) in 16 SBS patients.
The 18 SBS patients (16 patients completed the study) were randomized evenly and in a double-blinded fashion to each of the six cross-over dose level combinations: 10 mg/1 mg, 10 mg/0.1 mg, 1 mg/10 mg, 1 mg/0.1 mg, 0.1 mg/10 mg, 0.1 mg/1 mg of ZP1848. The patients were injected once daily (QD) subcutaneously with the above doses of ZP1848.
Blood samples for PK analysis were collected on several study visits throughout the study period: the study comprised a 1st baseline balance study (4 days), a 1st treatment period (21 days) including a 1st treatment balance study (last 4 days of 1st treatment period), followed by a wash-out period (at least 4 weeks); and a 2nd baseline balance study (4 days), a 2nd treatment period (21 days) including a 2nd treatment balance study (last 4 days of 2nd treatment period) and a follow-up period (at least 4 weeks).
PK sampling was performed at visit 11 (1st treatment, balance study) and visit 17 (second day of 2nd baseline study-after a wash out period), and again at visit 25 (2nd treatment balance study) and at visit 29 (last day of follow-up period).
At day visit 11 and visit 25 a full PK profile in steady state was investigated. PK samples were taken prior to injection of ZP1848, and at the following time points (+/−10 minutes) after trial product administration: 1 h, 2 h, 4 h, 6 h, 8 h, 10 h, 12 h and 24 h. Each PK sample contained 2 mL of blood, resulting in a total of […] blood drawn for PK purposes. The plasma sample was immediately stored at −80° C. after sampling.
Plasma samples were analyzed after immunoaffinity extraction followed by liquid chromatography mass spectrometry (LC-MS/MS). […] Plasma terminal elimination half-life (T½) was determined as In (2)/ke where ke is the magnitude of the slope of the log linear regression of the log concentration versus time profile during the terminal phase.

[4] = previous experiments; cited from earlier work
[5] = target: T1, human GLP-2 receptor (human, UniProt O95838 1-553); experiment: cell-based or functional assay
T1 sequence (looked up): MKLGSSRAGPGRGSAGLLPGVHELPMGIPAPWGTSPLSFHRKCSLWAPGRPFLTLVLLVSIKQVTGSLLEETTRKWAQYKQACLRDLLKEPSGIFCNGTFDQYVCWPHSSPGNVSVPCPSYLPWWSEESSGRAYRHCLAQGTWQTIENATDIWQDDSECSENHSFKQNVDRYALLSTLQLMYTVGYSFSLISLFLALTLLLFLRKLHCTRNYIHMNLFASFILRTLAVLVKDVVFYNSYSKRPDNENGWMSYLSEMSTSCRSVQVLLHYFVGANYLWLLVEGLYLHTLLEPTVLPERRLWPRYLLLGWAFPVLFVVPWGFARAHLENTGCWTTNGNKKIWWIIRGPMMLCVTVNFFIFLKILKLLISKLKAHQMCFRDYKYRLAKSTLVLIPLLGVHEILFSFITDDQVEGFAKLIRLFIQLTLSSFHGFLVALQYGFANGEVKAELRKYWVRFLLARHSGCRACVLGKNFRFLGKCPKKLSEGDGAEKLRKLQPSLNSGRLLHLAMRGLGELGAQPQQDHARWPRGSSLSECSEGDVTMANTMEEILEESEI

[6] = Phase 1 PK trial of glepaglutide in healthy subjects, half-life of metabolite ZP2469; type: in vivo, human; settings: per subject; for half-life: human, plasma
Description: A Phase 1, Open-Label, Partially Randomized, 3-Part, Parallel Group Trial to Evaluate the Pharmacokinetic Profile of glepaglutide (ZP1848) After a Single Intravenous Injection and After Multiple Subcutaneous Injections in Healthy Human Subjects A Phase 1 clinical trial to characterize the pharmacokinetic (PK) profiles of glepaglutide (ZP1848) and its primary active metabolites following once-weekly and once daily subcutaneous (SC) injections and after a single intravenous (IV) infusion in healthy subjects was conducted. This included evaluating the pharmacodynamic effects on plasma citrulline levels following SC dosing in healthy subjects. The trial confirmed the feasibility of dosage regimes in which GLP-2 analogues are administered to patients in weekly dosage regimes and compare weekly dosage regimes with daily dosing.
The trial design was a single-center, open-label, partially randomized, 3-part, parallel group trial to characterize the PK profile of glepaglutide administered by SC injection once daily for 7 days (Part 1), SC injection once weekly for 6 weeks (Part 2), and as a single IV infusion (Part 3) in healthy subjects.
Group A: 1 mg glepaglutide once daily, given as single SC injections on Days 1 to 7.
Group B: 5 mg glepaglutide once daily, given as single SC injections on Days 1 to 7.
Group C: 5 mg glepaglutide once weekly, given as single SC injections on Days 1, 8, 15, 22, 29, and 36.
Group D: 10 mg glepaglutide once weekly, given as single SC injections on Days 1, 8, 15, 22, 29, and 36.
Blood samples were collected for the analysis of plasma concentrations of glepaglutide and its primary active metabolites, ZP2469 (ZP18481-34) and ZP2711 (ZP18481-35); samples were assayed using validated analytical methods. The following PK parameter estimates were calculated using standard non-compartmental methods: terminal elimination half-life (t1/2), total body clearance of drug after IV administration (CL; IV dose, parent drug only), apparent total clearance (CL/F; SC doses, parent drug only), volume of distribution at steady state (Vss; IV dose, parent drug only), apparent volume of distribution at steady state (Vss/F; SC doses, parent drug only), volume of distribution (Vz; IV dose, parent drug only), apparent volume of distribution (Vz/F; SC doses, parent drug only), maximum observed plasma concentration (Cmax), area under the plasma concentration-time curve (AUC) over a dosing interval (AUCT), AUC from time zero to infinity (AUCinf), AUC from time zero to the time of the last measurable concentration (AUClast), and time of the maximum observed plasma concentration (tmax). Metabolite exposure (based on Cmax, AUCT, and AUCinf) were determined for each group as a ratio of the 2 primary active metabolites, ZP2469 (ZP18481-34) and ZP2711 (ZP18481-35), relative to the glepaglutide parent drug.
The PK parameters estimates for glepaglutide, ZP2469 (ZP18481-34), and ZP2711 (ZP 18481-35) were listed and summarized using standard descriptive statistics. The primary PK parameters are t1/2 for glepaglutide, ZP2469 (ZP18481-34), and ZP2711 (ZP18481-35); and CL (IV dose), CL/F (SC doses), Vss(IV dose), Vss/F (SC dose), Vz(IV dose), and Vz/F (SC doses) for glepaglutide. The half-life is calculated as LN(2)/ke where ÷ke is estimate from the slope of the terminal part of the LN(concentration) versus time curve, with repeats regressions of LN(concentration) values using the last three points with non-zero concentrations, then the last four points, last five points, etc. Points with a concentration value of zero are not included. Points prior to Cmax are not used. […] 2) ke must be calculated from at least three data points. 3) The estimated slope must be negative, so that its negative ke is positive. The results of the calculations carried out with preliminary data are shown in Table 4, while the results of the calculations with the complete final data set are shown in Table 5. […]

[7] = subcutaneous, Phase 2 study, SBS patients, read-out: terminal plasma half-life

Molecule: Hy-His-Ala-Asp-Gly-Ser-Phe-Ser-Asp-Glu-Met-Asn-Thr-Ile-Leu-Asp-Asn-Leu-Ala-Ala-Arg-Asp-Phe-Ile-Asn-Trp-Leu-Ile-Gln-Thr-Lys-Ile-Thr-Asp-OH [GLP-2 [1-33]]
half-life ([1]; in humans): around 7 minutes | half-life ([1]; in humans, listed as native GLP-2): seven

Molecule: H-HGEGTFSSELATILDALAARDFIAWLIATKITDKKKKKK-NH2 [ZP1848] [listing 1 of 2 here]
mucosal hyperplasia of the duodenum, jejunum and ileum ([2]; 1, 3 and 10 mg/kg SC daily for 26 weeks): dose-related increase | length and weight of the large intestine ([2]; SC daily for 26 weeks): slightly increased

Molecule: CC[C@H](C)[C@H](NC(=O)[C@H](Cc1ccccc1)NC(=O)[C@H](CC(=O)O)NC(=O)[C@H](CCCNC(=N)N)NC(=O)[C@H](C)NC(=O)[C@H](C)NC(=O)[C@H](CC(C)C)NC(=O)[C@H](CC(N)=O)NC(=O)[C@H](CC(=O)O)NC(=O)[C@H](CC(C)C)NC(=O)[C@@H](NC(=O)[C@@H](NC(=O)[C@H](CC(N)=O)NC(=O)[C@H](CCSC)NC(=O)[C@H](CCC(=O)O)NC(=O)[C@H](CC(=O)O)NC(=O)[C@H](CO)NC(=O)[C@H](Cc1ccccc1)NC(=O)[C@H](CO)NC(=O)CNC(=O)[C@H](CC(=O)O)NC(=O)CNC(=O)[C@@H](N)Cc1c[nH]cn1)[C@@H](C)O)[C@@H](C)CC)C(=O)N[C@@H](CC(N)=O)C(=O)N[C@@H](Cc1c[nH]c2ccccc12)C(=O)N[C@@H](CC(C)C)C(=O)N[C@H](C(=O)N[C@@H](CCC(N)=O)C(=O)N[C@H](C(=O)N[C@@H](CCCCN)C(=O)N[C@H](C(=O)N[C@H](C(=O)N[C@@H](CC(=O)O)C(=O)O)[C@@H](C)O)[C@@H](C)CC)[C@@H](C)O)[C@@H](C)CC [Teduglutide]
half-life ([1]; in vivo): about two

Molecule: Teduglutide (peptide)
EC50 Avg (nM), cAMP AlphaScreen in HEK293 cells expressing hGLP-2R [5]: 0.03 nM

Molecule: GLP-2 [3-33]: truncated GLP-2 [3-33] (DGSFSDEMNTILDNLAARDFINWLIQTKITD; Glucagon-like peptide 2; UniProt P01275 148-178, looked up, fragment)
half-life ([1]; in humans): ~0.45 h

Molecule: HGEGTFSSELATILDALAARDFIAWLIATKITDKKKKKK-NH2 [ZP1848]
EC50_Avg (nM), cAMP AlphaScreen in HEK293 cells expressing hGLP-2R [5]: 0.3 nM

Molecule: HGEGSFSSELSTILDALAARDFIAWLIATKITDKKKKKK-NH2 [ZP1846]
EC50_Avg (nM), cAMP AlphaScreen in HEK293 cells expressing hGLP-2R [5]: 0.26 nM

Molecule: HGEGTFSSELATILDALAARDFIAWLIATKITDKKK-OH [ZP2949]
EC50_Avg (nM), cAMP AlphaScreen in HEK293 cells expressing hGLP-2R [5]: 0.11 nM

Molecule: HGEGTFSSELATILDALAARDFIAWLIATKITDK-OH [ZP2469]
EC50_Avg (nM), cAMP AlphaScreen in HEK293 cells expressing hGLP-2R [5]: 0.052 nM

Molecule: HGEGTFSSELATILDALAARDFIAWLIATKITDKK-OH [ZP2711]
EC50_Avg (nM), cAMP AlphaScreen in HEK293 cells expressing hGLP-2R [5]: 0.072 nM

More lines, main results first:

half-life ([3]; sc, plasma terminal elimination half-life, per subject, after SC once-daily ZP1848, read-out: Half-life (converted)): 336 h
Molecule: H-HGEGTFSSELATILDALAARDFIAWLIATKITDKK-OH [ZP2711]

half-life [3, 7]: 120 to 408 h
Molecule: H-HGEGTFSSELATILDALAARDFIAWLIATKITDKKKKKK-NH2 [ZP1848] [listing 2 of 2 here]
half-life [4]: about 17 hours

half-life [3, 7]: 120 to 408 h | Half-life of ZP2469 in the interval from 72 to 168 hours post dose ([6]; final results, Group A, 1 mg once daily, after 7 doses): 75 h | Half-life of ZP2469 in the interval from 72 to 168 hours post dose ([6]; final results, Group C, 5 mg once weekly, after 1 dose): 59 h and 75 h | Half-life of ZP2469 in the interval from 72 to 168 hours post dose ([6]; final results, Group C, 5 mg once weekly, after 6 doses): 57 h | Half-life of ZP2469 in the interval from 72 to 168 hours post dose ([6]; final results, Group D, 10 mg once weekly, after 6 doses): 59 h and 53 h and 42 h and 48 h | half-life ([6]; sc, 10 mg, preliminary results, Group D, 10 mg glepaglutide SC once weekly, after 1 dose, read-out: Half-life ZP2469 (converted)): 56 h | half-life ([6]; subcutaneous, 1 mg, final results, Group A, 1 mg once daily, after 7 doses, read-out: Half-life of ZP2469 in the interval from 72 to 168 hours post dose (converted)): 94 h | Half-life ZP2469 ([6]; preliminary results, Group A, 1 mg glepaglutide SC once daily, after 7 doses): 20 h | Half-life ZP2469 ([6]; preliminary results, Group C, 5 mg glepaglutide SC once weekly, after 1 dose): 17 h | Half-life ZP2469 ([6]; preliminary results, Group D, 10 mg glepaglutide SC once weekly, after 1 dose): 38 h and 34 h
Molecule: H-HGEGTFSSELATILDALAARDFIAWLIATKITDK-OH [ZP2469]
Half-life of ZP2469 in the interval from 72 to 168 hours post dose ([6]; final results, Group D, 10 mg once weekly, after 1 dose): 54 h and 46 h and 35 h and 60 h and 26 h and 53 h and 43 h and 33 h and 45 h and 38 h
